# From patent publication US6248718A, “Lesion-directed dry dosage forms of antibacterial agents for the treatment of acute mucosal infections of the oral cavity” (priority 1999, dated 2001)
# Where “and” joins values, the source holds several entries; their conditions need not be identical. Equal values may be shown once.
# What was measured:
# [1] = Local concentrations of penicillin in saliva after penicillin G potassium 50 mg tablet (Example IX); assay type: in vivo, human
# Method: Five healthy adult volunteers, three men and two women, were selected for this study.
# On the day of study, two hours after breakfast, the volunteers were given a single tablet of the drug, placed in the right oral sulcus between the lower gum and the buccal mucosa to be dissolved in a minimum amount of saliva in about six (6) minutes. This loculated pocket of saliva was not to be swallowed and was not to be further diluted by saliva from other parts of the mouth for one hour. At 6 minutes, 20 minutes, 40 minutes and 60 minutes after drug application, an aliquot of 0.01 ml was aspirated from this pocket of saliva and added into a test tube containing 10 ml of nutrient broth to give a 1,000 times dilution. After being mixed well, aliquots of the mixtures of saliva sample and nutrient broth were forced to pass through bacterial filters into sterile test tubes. Thcn 0.8 ml of each 1:1,000 diluted filtrate was pipetted and added to 3.2 ml of nutrient broth to make an additional 5 times dilution in a volume of 4 ml. Two ml was pipetted from the latter to make a serial double dilution of saliva sample in 2 ml of nutrient broth, as described above under a, in 12 test tubes. The dilution factor for the saliva sample in test No. 1 was 5,000 and […] progressively to 1:10,240,000 in test tube No.12.
# Each filtered mixture in test tube was inoculated with 0.1 ml of a 1:1,000 dilution of a 12 hour broth culture of Staphyloccus aureus ATCC 29213.
# (§1) A row of 6 test tubes each containing 2 ml of nutrient broth with decreasing concentrations of penicillin G potassium, USP Reference Standard 502508, at 6.2, 3.1, 1.5, 0.75, 0.32, and 0.16 mcg/ml, using a serial double dilution method described in a., was prepared and similarly inoculated with 0.1 ml broth culture of Staphyloccus aureus ATCC 29213 as the standard.
# (§2) All test tubes were incubated at 37° C. for 18 hours and observed for bacterial growth against an inoculated broth containing neither antibiotic nor saliva samples.
# The test tube of highest number with the highest dilution factor of saliva in nutrient broth in which no bacterial growth was observed was interpreted as containing an equivalent of penicillin G potassium at 0.75 mcg/ml. Using the dilution factors, it was calculated that, after topical application of the drug product, the concentrations of penicillin G potassium in the saliva at the site of medication within the first hour were as follows.
# [2] = Local concentrations of penicillin in saliva after topical medication of various doses (Example VII); assay type: in vivo, human; conditions: for Penicillin concentration in saliva / concentration at 0.1 h / concentration at 20 min / concentration at 40 min / concentration at 1 h / concentration at 2 h: studies 1-3; for concentration at 0.1 h / concentration at 20 min / concentration at 40 min / concentration at 1 h / concentration at 2 h: human, in vivo, topical or ocular; for concentration at 2 h: 120 min, after water at 60 min
# Method: Five healthy adult volunteers, three men and two women, were selected for this study. The same volunteers were used as the subjects for three studies, and the results are summarized as follows.
# On the day of study, two hours after breakfast, the volunteers were given a dose of 100 mg, 50 mg, 20 mg, 10 mg and 2 mg of USP grade penicillin G potassium powder respectively. The drug powder was placed in the right oral sulcus between the lower gum and the buccal mucosa to be dissolved in a minimum amount of saliva. This loculated pocket of saliva was not to be swallowed and was not to be further diluted by saliva from other parts of the mouth for one hour. At 6 minutes, 20 minutes, 40 minutes and 60 minutes after drug application, an aliquot of 0.01 ml was taken from this pocket of saliva and added into a test tube containing 10 ml of nutrient broth to give a 1,000 times dilution. After being mixed well, aliquots of the mixtures of saliva sample and nutrient broth were forced to pass through bacterial filters into sterile test tubes. Then 0.8 ml of each 1:1,000 diluted filtrate was pipetted and added to 3.2 ml of nutrient broth to make an additional 5 times dilution in a total volume of 4 ml. Two ml was pipetted from the latter to make a serial double dilution of saliva sample in 2 ml of nutrient broth, as described above under a, in 12 test tubes. The dilution factor for the saliva sample in test No. 1 was 1:5,000 and increased progressively to 1:10,240,000 in test tube No. 12.
# After the 60-minute sample was taken, the subjects were given an 8 oz. glass of water to drink or to rinse his or her mouth, but refrained from drinking and eating for another hour. At the end of this last hour, i.e. about 2 hours after the drug application, another saliva sample of 0.2 ml was withdrawn and added to 3.8 ml of nutrient broth to make a 1:20 dilution and the mixture was forced to pass a bacterial filter into a sterile test tube. Two (2 ) ml of the filtrate was pipetted from this 1:20 diluted mixture for antibiotic activity assays.
# Each filtered mixture in test tube was inoculated with 0.1 ml of a 1:1,000 dilution of a 12 hour broth culture of Staphylococcus aureus ATCC 29213.
# as §1, with “potassium from 6.2 to” for “potassium, USP Reference Standard 502508, at 6.2, 3.1, 1.5, 0.75, 0.32, and”, “Staphylococcus” for “Staphyloccus”
# as §2
# The test tube of the highest number with the highest dilution factor of saliva in nutrient broth in which no bacterial growth was observed was interpreted as containing an equivalent of penicillin G potassium at 0.75 mcg/ml. Using the dilution factors, it was calculated that, after topical application of 2 to 100 mg of penicillin G potassium dry powder, the concentrations of penicillin G potassium in the saliva at the site of medication within the first hour and one hour after purging the mouth with water were as follows.
compound,measurement,setting,value
CC1(C)S[C@@H]2[C@H](NC(=O)Cc3ccccc3)C(=O)N2[C@H]1C(=O)O [penicillin G potassium],concentration at 0.1 h,"[1]; human, saliva, topical or ocular, 50 mg tablet, 6 min",240000 to 480000 µg/mL
same,concentration at 20 min,"[1]; human, saliva, topical or ocular, 50 mg tablet, 20 min",120000 to 240000 µg/mL
same,concentration at 40 min,"[1]; human, saliva, topical or ocular, 50 mg tablet, 40 min",30000 to 60000 µg/mL
same,concentration at 1 h,"[1]; human, saliva, topical or ocular, 50 mg tablet, 60 min",7500 to 15000 µg/mL
same,initial local concentration in saliva,[1]; tablet of 50 mg penicillin G potassium,about 480 mg/ml
same,local concentration in saliva in one hour,"[1]; tablet of 50 mg penicillin G potassium, 60 min",7.5 to 15 mg/mL
same,Penicillin concentration in saliva,"[2]; 2 mg topical powder, 20 min",below 3.75 mg/ml
same,Penicillin concentration in saliva,"[2]; 2 mg topical powder, 20 min, listed as Penicillin G Potassium",< 3.75 mg/mL
same,Penicillin concentration in saliva,"[2]; 2 mg topical powder, 40 min",< 3.75 mg/mL
same,Penicillin concentration in saliva,"[2]; 2 mg topical powder, 60 min",< 3.75 mg/mL
same,Penicillin concentration in saliva,"[2]; 10 mg topical powder, 6 min",60 mg/mL
same,Penicillin concentration in saliva,"[2]; 10 mg topical powder, 60 min",3.75 mg/mL and 7.5 mg/mL
same,Penicillin concentration in saliva,"[2]; 20 mg topical powder, 6 min",240 mg/mL and 120 mg/mL
same,Penicillin concentration in saliva,"[2]; 20 mg topical powder, 20 min",60 mg/mL
same,Penicillin concentration in saliva,"[2]; 20 mg topical powder, 60 min",7.5 mg/mL
same,Penicillin concentration in saliva,"[2]; 50 mg topical powder, 6 min",240 mg/mL and 480 mg/mL
same,Penicillin concentration in saliva,"[2]; 50 mg topical powder, 20 min",120 mg/mL and 240 mg/mL
same,Penicillin concentration in saliva,"[2]; 50 mg topical powder, 60 min",7.5 mg/mL
same,Penicillin concentration in saliva,"[2]; 100 mg topical powder, 6 min",480 mg/mL
same,Penicillin concentration in saliva,"[2]; 100 mg topical powder, 20 min",240 mg/mL and 120 mg/mL
same,Penicillin concentration in saliva,"[2]; 100 mg topical powder, 40 min",60 mg/mL
same,Penicillin concentration in saliva,"[2]; 100 mg topical powder, 60 min",30 mg/mL and 15 mg/mL
same,initial peak concentrations at the site of medication,[2]; doses of 2 mg to 100 mg powder,7.5 to 960 mg/mL
same,dose required to maintain minimum 3.75 mg/ml in saliva for one hour,[2]; dry powder,at least 10 mg
same,concentration at 0.1 h,"[2]; 2 mg topical powder, 6 min",15000 µg/mL
same,concentration at 20 min,"[2]; 2 mg topical powder, 20 min",7500 µg/mL
same,concentration at 40 min,"[2]; 2 mg topical powder, 40 min",3750 µg/mL
same,concentration at 1 h,"[2]; 2 mg topical powder, 60 min",< 3750 µg/mL
same,concentration at 2 h,[2]; 2 mg topical powder,< 15 µg/mL
same,concentration at 0.1 h,"[2]; 10 mg topical powder, 6 min",60000 µg/mL
same,concentration at 20 min,"[2]; 10 mg topical powder, 20 min",30000 µg/mL
same,concentration at 40 min,"[2]; 10 mg topical powder, 40 min",15000 µg/mL
same,concentration at 1 h,"[2]; 10 mg topical powder, 60 min",3750 µg/mL
same,concentration at 2 h,[2]; 10 mg topical powder,< 15 µg/mL
same,concentration at 0.1 h,"[2]; 20 mg topical powder, 6 min",120000 µg/mL
same,concentration at 20 min,"[2]; 20 mg topical powder, 20 min",60000 µg/mL
same,concentration at 40 min,"[2]; 20 mg topical powder, 40 min",7500 µg/mL
same,concentration at 1 h,"[2]; 20 mg topical powder, 60 min",7500 µg/mL
same,concentration at 2 h,[2]; 20 mg topical powder,< 15 µg/mL
same,concentration at 0.1 h,"[2]; 50 mg topical powder, 6 min",480000 µg/mL
same,concentration at 20 min,"[2]; 50 mg topical powder, 20 min",240000 µg/mL
same,concentration at 40 min,"[2]; 50 mg topical powder, 40 min",30000 µg/mL
same,concentration at 1 h,"[2]; 50 mg topical powder, 60 min",7500 µg/mL
same,concentration at 2 h,[2]; 50 mg topical powder,< 15 µg/mL
same,concentration at 0.1 h,"[2]; 100 mg topical powder, 6 min",960000 µg/mL
same,concentration at 20 min,"[2]; 100 mg topical powder, 20 min",240000 µg/mL
same,concentration at 40 min,"[2]; 100 mg topical powder, 40 min",30000 µg/mL
same,concentration at 1 h,"[2]; 100 mg topical powder, 60 min",15000 µg/mL
same,concentration at 2 h,[2]; 100 mg topical powder,< 15 µg/mL
same,concentration in saliva after drinking,"[2]; one hour after 8 oz. of fluid, all doses",< 15 µg/mL
